Laboratory results reported in patent US20250360167A1 (Keryx Biopharmaceuticals, Inc., priority 2013, published 2025).

What was measured:
Type in all cases: in vivo, human
[1] = tested on: serum calcium; test: Phase 3 trial (Example 1): serum calcium
Experimental: Serum phosphorus and calcium were performed at Screening (Visit 0); weekly during the Washout Period after Visit 1 (Week −2); at Visit 4 (Randomization Visit); at Visits 5 (Week 1), 6 (Week 2), 7 (Week 4), 8 (Week 6), 9 (Week 8), 10 (Week 10), 11 (Week 12), 12 (Week 16), 13 (Week 20), 14 (Week 24), 15 (Week 28), 16 (Week 32), 17 (Week 36), 18 (Week 40), 19 (Week 44), 20 (Week 48), and 21 (Week 52) of the 52-week Safety Assessment Period; and at Visits 22 (Week 53), 23 (Week 54), 24 (Week 55) and 25 (Week 56) of the Efficacy Assessment Period.
These variables will be analyzed using LOCF methodology. ANCOVA will be employed. The model will include treatment (fixed effect), and Visit-4 baseline (covariate). An analysis using MMRM method will be conducted as a sensitivity analysis. The least square mean estimates of the treatment effects as well as the 2-sided 95% confidence intervals (CI) of the treatment effects will be derived.
• 1. Change in serum calcium concentration at Weeks 12, 24, 36, 48, and 52 as compared to baseline (Visit 4). This variable will be analyzed using LOCF methodology. ANCOVA will be employed. The model will include treatment (fixed effect), and baseline (covariate). • 2. Change in ferritin, and TSAT at Weeks 12, 24, 36 and 48 as compared to baseline (Visit 4). This variable will be analyzed using LOCF methodology. ANCOVA will be employed. The model will include treatment (fixed effect), and baseline (covariate). • 3. Change in serum iron and TIBC at Weeks 12, 24, 36, 48, and 52 as compared to baseline (Visit 4). This variable will be analyzed using LOCF methodology. ANCOVA will be employed. The model will include treatment (fixed effect), and baseline (covariate). • 4. Change in Ca x P product at Weeks 12, 24, 36, 48, and 52 as compared to baseline (Visit 4). This variable will be analyzed using LOCF methodology. ANCOVA will be employed. The model will include treatment (fixed effect), and baseline (covariate). • 5. Change in iPTH at Weeks 12, 36, 52, and 56 as compared to baseline (Visit 4). This variable will be analyzed using LOCF methodology. ANCOVA will be employed. The model will include treatment (fixed effect), and baseline (covariate). • 6. Change in serum […], vitamin A, vitamin B-12, vitamin E, vitamin K and folic acid at Weeks 12, 36, and 52 as compared to baseline (Visit 4). This variable will be analyzed using LOCF methodology. ANCOVA will be employed. The model will include treatment (fixed effect), and baseline (covariate). • 7. Change in serum bicarbonate concentration at Weeks 12, 36, and 52 as compared to baseline (Visit 4). This variable will be analyzed using LOCF methodology. ANCOVA will be employed. The model will include treatment (fixed effect), and baseline (covariate). • 8. Change in IV iron intake at Weeks 12, 24, 36, 48, and 52 as compared to baseline (Visit 4). This variable will be analyzed using LOCF methodology. ANCOVA will be employed. The model will include treatment (fixed effect), and baseline (covariate). • 9. Change in the use of EPO (ESA) administered at Weeks 12, 24, 36, 48, and 52 as compared to baseline (Visit 4). This variable will be analyzed using LOCF methodology. ANCOVA will be employed. The model will include treatment (fixed effect), and baseline (covariate). • 10. Change in the use of Vitamin D supplementation (and its analogs) and Sensipar (cinacalcet) at Weeks 12, 24, 36, 48, and 52 as compared to baseline (Visit 4). This variable will be analyzed using LOCF methodology. ANCOVA will be employed. The model will include treatment (fixed effect), and baseline (covariate). • 11. Change in LDL, HDL, and triglycerides at Weeks 12, 36, and 52 as compared to baseline (Visit 4). This variable will be analyzed using LOCF methodology. ANCOVA will be employed. The model will include treatment (fixed effect), and baseline (covariate).

[2] = Phase 3 trial (Example 1): cumulative EPO (ESA) administered to Week 52
Description: The cumulative EPO (ESA) administrated from randomization to Week 52 will be compared between treatment groups. This variable will be similarly analyzed as the primary efficacy variable using ANCOVA method. The two-sided 95% confidence intervals of treatment differences for all above comparisons will be presented.

[3] = tested on: TSAT; test: Phase 2 trial (Example 2): TSAT
Description: Change in serum phosphorus, ferritin and TSAT levels from baseline to end of treatment after 12 weeks are the primary endpoints.
The co-primary efficacy endpoints of this trial were the mean changes in serum phosphorus and TSAT from baseline to the end of the 12-week treatment period versus placebo in the ITT group.

[4] = Phase 2 trial (Example 2): safety and tolerability
Experimental: The safety population in the study included all randomized patients who took at least one dose of study drug.
Serious adverse events occurred in six KRX-0502 subjects (8%) versus ten placebo subjects (14%). Two deaths were recorded in the study, both from the placebo group.

With “iron (+3), x (1, 2, 3-propanetricarboxylic acid, 2-hydroxy-), y (H2O) [KRX-0502]” the “Calcium, Mean” value ([1]; Baseline, Table 12) was 8.843 mg/dL, the “Calcium, Median” value ([1]; Baseline, Table 12) was 8.900 mg/dL and the “Calcium, Week 12 Change from Baseline, Mean” value ([1]; Table 12) was 0.245 mg/dL. For the same substance, the “Calcium, Week 12 Change from Baseline, Median” value ([1]; Table 12) was 0.200 mg/dL, the “Calcium, LS Mean” value ([1]; Week 12, ANCOVA, Table 12) was 9.11 mg/dL and the “Calcium, Mean” value ([1]; Week 12, Table 12) was 9.089 mg/dL. The “Calcium, Median” value ([1]; Week 12, Table 12) was 9.100 mg/dL, the “Calcium, Treatment Differences, LS Mean (KRX-0502) − LS Mean (Control)” value ([1]; Week 12, control = sevelamer carbonate as a single agent) was -0.04 mg/dL and the “Average Daily EPO (ESA) intake based on the Cumulative EPO (ESA) intake to week 52 (Visit 4-21), Median” value ([2]; Safety Assessment Period, Full Analysis Population, Method 1 to handle overlapping doses) was 724.24. The “Average Daily EPO (ESA) intake based on the Cumulative EPO (ESA) intake to week 52 (Visit 4-21), Mean” value ([2]; Safety Assessment Period, Full Analysis Population, Method 1 to handle overlapping doses, SD in the next cell) was 1077.67, the “decrease in median ESA intake” value ([2]; administered over a period of 52 weeks, stated as embodiment) was 27.1% and the “TSAT, Baseline” value ([3]; Baseline, ITT group, n = 72) was 22%. For the same substance, the “TSAT, End of Treatment (Week 12)” value ([3]; Week 12, last observation carried forward, ITT group, n = 72) was 32%, the “ending TSAT level at Visit 11 (Week 12)” value ([3]; sample size assumption) was “approximately 25%” and the “differences in serum calcium levels and liver enzymes (ALT, AST)” value ([4]; KRX-0502 vs placebo) was “no clinically meaningful or statistically significant differences”. For the same substance, the “Serious adverse events, % of subjects” value ([4]; Phase 2 study) was 8%, the “Serious adverse events, number of subjects” value ([4]; Phase 2 study) was “six” and the “study discontinuations due to hypophosphatemia” value ([4]; Phase 2 study) was “no study discontinuations due to hypophosphatemia”. For the same substance, the safety and tolerability ([4]; Phase 2 study, safety population) was “safe and well-tolerated” and the discontinuation rates ([4]; including Treatment Failures) was 19%.
